What was measured:
Format in all cases: biochemical
PKC theta kinase = PKC theta kinase (Homo sapiens, UniProt Q04759); experiment: PKC theta kinase inhibition, coupled-enzyme (NADH absorbance) assay, Ki; conditions: 240 μM ATP, 18 nM PKC theta kinase, 30° C.
Description: An assay buffer solution was prepared which consisted of 100 mM HEPES (pH 7.5), 10 mM MgCl2, 25 mM NaCl, 0.1 mM EDTA and 0.01% Brij. […] To 60 μL of this enzyme buffer, in a 384 well plate, was added 2 μL of VRT stock solution in DMSO. The mixture was allowed to equilibrate for 10 mins at 30° C. […] Ki values were calculated from initial rate data by non-linear regression using the Prism software package (Prism 4.0a, Graphpad Software, San Diego, Calif.).

PKC alpha kinase = PKC alpha kinase (Homo sapiens, UniProt P17252); experiment: PKC alpha kinase inhibition, coupled-enzyme (NADH absorbance) assay, Ki; conditions: 130 μM ATP, 4.5 nM PKC alpha kinase, 30° C.
Description: (§1) An assay buffer solution was prepared which consisted of 100 mM HEPES (pH 7.5), 10 mM MgCl2, 25 mM NaCl, 0.1 mM EDTA, 100 μM CaCl2 and 0.01% Brij. […] To 16 μL of this enzyme buffer, in a 384 well plate, was added 1 μL of VRT stock solution in DMSO. The mixture was allowed to equilibrate for 10 mins at 30° C. The enzyme reaction was initiated by the addition of 16 μL stock ATP solution prepared in assay buffer to a final assay concentration of 130 μM. Initial rate data was determined from the rate of change of absorbance at 340 nm (corresponding to stoichiometric consumption of NADH) using a Molecular Devices Spectramax plate reader (Sunnyvale, Calif.) over 15 mins at 30° C. […] Ki values were calculated from initial rate data by non-linear regression using the Prism software package (Prism 4.0a, Graphpad Software, San Diego, Calif.).

PKC delta kinase = PKC delta kinase (Homo sapiens, UniProt Q05655); experiment: PKC delta kinase inhibition, coupled-enzyme (NADH absorbance) assay, Ki; conditions: 150 μM ATP, 46 nM PKC delta kinase, 30° C.; read-out: Ki PKC delta
PKC delta kinase, sequence (Q05655 whole entry): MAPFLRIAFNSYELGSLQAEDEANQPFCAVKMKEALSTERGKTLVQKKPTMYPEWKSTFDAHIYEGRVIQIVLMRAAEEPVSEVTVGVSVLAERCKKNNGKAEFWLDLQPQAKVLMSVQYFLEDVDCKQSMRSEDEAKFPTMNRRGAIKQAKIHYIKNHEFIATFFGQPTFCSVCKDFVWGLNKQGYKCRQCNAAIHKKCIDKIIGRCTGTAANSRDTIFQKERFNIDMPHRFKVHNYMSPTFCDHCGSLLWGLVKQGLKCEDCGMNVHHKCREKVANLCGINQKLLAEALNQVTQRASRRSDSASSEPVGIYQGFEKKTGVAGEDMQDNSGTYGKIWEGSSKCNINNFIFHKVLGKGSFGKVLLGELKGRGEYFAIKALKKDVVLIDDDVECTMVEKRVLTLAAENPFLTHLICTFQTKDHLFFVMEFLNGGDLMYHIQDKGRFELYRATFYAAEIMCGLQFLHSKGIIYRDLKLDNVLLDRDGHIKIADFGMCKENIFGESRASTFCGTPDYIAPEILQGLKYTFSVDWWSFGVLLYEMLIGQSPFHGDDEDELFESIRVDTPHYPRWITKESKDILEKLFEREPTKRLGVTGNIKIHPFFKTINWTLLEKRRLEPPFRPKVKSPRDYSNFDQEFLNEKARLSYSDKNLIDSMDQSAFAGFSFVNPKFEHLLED
Description: as §1, with “EDTA” for “EDTA, 100 μM CaCl2”, “150” for “130”

PKC theta kinase, sequence (Q04759 whole entry): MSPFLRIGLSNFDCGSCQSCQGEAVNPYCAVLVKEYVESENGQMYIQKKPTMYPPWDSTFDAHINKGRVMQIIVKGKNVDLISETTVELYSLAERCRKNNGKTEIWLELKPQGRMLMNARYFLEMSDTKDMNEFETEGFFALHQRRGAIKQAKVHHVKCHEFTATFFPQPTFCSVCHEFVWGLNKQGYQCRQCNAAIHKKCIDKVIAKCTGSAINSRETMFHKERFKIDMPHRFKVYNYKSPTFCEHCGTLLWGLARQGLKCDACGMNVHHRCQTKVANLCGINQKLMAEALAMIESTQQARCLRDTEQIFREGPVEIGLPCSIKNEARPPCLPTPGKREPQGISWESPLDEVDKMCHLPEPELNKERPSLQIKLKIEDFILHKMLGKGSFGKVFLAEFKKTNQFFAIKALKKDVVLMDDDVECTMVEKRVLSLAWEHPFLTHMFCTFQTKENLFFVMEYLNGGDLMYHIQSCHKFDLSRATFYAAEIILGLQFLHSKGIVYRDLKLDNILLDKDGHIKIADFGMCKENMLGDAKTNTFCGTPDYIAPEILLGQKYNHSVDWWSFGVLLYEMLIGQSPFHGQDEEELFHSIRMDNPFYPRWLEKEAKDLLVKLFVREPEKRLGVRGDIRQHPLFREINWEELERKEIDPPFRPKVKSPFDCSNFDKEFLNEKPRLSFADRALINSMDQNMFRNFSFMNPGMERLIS

| Structure (SMILES) | Ki (PKC theta kinase) [µM] | Ki (PKC alpha kinase) [µM] | Ki (PKC delta kinase) [µM] |
| --- | --- | --- | --- |
| FC(F)(F)c1ccnc2[nH]nc(-c3cccc(N4CCNCC4)n3)c12 [Compound 191] | < 0.5 | > 1.25 | > 1.25 |
| OC1([C@@H]2CN(c3nc(-c4n[nH]c5ncccc45)c(F)cc3F)CCN2)CC1 [Compound 156] | < 0.001 | > 1.25 | < 0.5 |
| O=C1CN(c2ccc(C(F)(F)F)c(-c3n[nH]c4ncccc34)n2)CCN1 [Compound 194] | > 0.7 | > 1.25 | > 1.25 |
| OCC1CN(c2cccc(-c3n[nH]c4ncccc34)n2)CCN1 (stereo not drawn) [Compound 153] | < 0.5 | < 2.8 | < 0.5 |
| COc1ccccc1C1CN(c2ccc(C(F)(F)F)c(-c3n[nH]c4ncccc34)n2)CCN1 (stereo not drawn) [Compound 114] | < 0.5 | > 1.25 | > 1.25 |
| CN1CCN(c2ccc(F)c(-c3n[nH]c4ncccc34)n2)CC1 [Compound 226, 3-(3-fluoro-6-(4-methylpiperazin-1-yl)pyridin-2-yl)-1H-pyrazolo[3,4-b]pyridine] | < 0.5 | > 1.25 | > 1.25 |
| CC(C)C[C@@H]1CN(c2ccc(C(F)(F)F)c(-c3n[nH]c4ncccc34)n2)CCN1 [Compound 193] | < 0.5 | > 1.25 | > 1.25 |
| Fc1ccc(N2CCCC(C3CCCN3)C2)nc1-c1n[nH]c2ncccc12 (stereo not drawn) [Compound 314] | < 0.5 | > 1.25 | > 1.25 |
| CC(C)CC1(N)CCCN(c2ccc(C(F)(F)F)c(-c3n[nH]c4ncccc34)n2)C1 (stereo not drawn) [Compound 285] | < 0.5 | > 1.25 | > 1.25 |
| CC(C)C[C@H]1CN(c2ccc(C(F)(F)F)c(-c3n[nH]c4ncccc34)n2)C[C@@H](C)N1 [Compound 203] | < 0.05 | < 0.5 | < 0.5 |
| Cc1cc(N2CCNCC2)nc(-c2n[nH]c3ncccc23)c1Cl [Compound 95] | < 2.8 | > 1.25 | < 2.8 |
| Fc1ccc(N2CCCCC2)nc1-c1n[nH]c2ncccc12 [Compound 266] | > 0.7 | > 1.25 | > 1.25 |
| NC[C@@H]1CCCN1c1ccc(F)c(-c2n[nH]c3ncccc23)n1 [Compound 355] | > 0.7 | > 1.25 | > 1.25 |
| OC1(C2CN(c3ccc(C(F)(F)F)c(-c4n[nH]c5ncccc45)n3)CCN2)COC1 (stereo not drawn) [Compound 233] | > 0.7 | > 1.25 | > 1.25 |
| CC1CN(c2ccc(F)c(-c3n[nH]c4ncccc34)n2)CC1CN (stereo not drawn) [Compound 313] | < 0.5 | > 1.25 | > 1.25 |
| NC(=O)C1CN(c2ccc(C(F)(F)F)c(-c3n[nH]c4ncccc34)n2)CCN1 (stereo not drawn) [Compound 213] | > 0.7 | > 1.25 | > 1.25 |
| CC(C)C(C)(O)C1CN(c2nc(-c3n[nH]c4ncccc34)c(F)cc2F)CCN1 (stereo not drawn) [Compound 425] | < 0.001 | < 0.5 | < 0.05 |
| CC(C)[C@H]1CN(c2ccc(C(F)(F)F)c(-c3n[nH]c4ncccc34)n2)CCN1 [Compound 98] | < 0.5 | > 1.25 | > 2 |
| FC(F)(F)c1ccc(N2CCNC(c3ccc(Cl)cc3)C2)nc1-c1n[nH]c2ncccc12 (stereo not drawn) [Compound 173] | > 0.7 | > 1.25 | > 1.25 |
| NC1CCN(c2ccc(C(F)(F)F)c(-c3n[nH]c4ncccc34)n2)CC12CCCCC2 (stereo not drawn) [Compound 461] | < 0.05 | > 1.25 | < 0.5 |
| CC(C)C(N)[C@H]1CCCN(c2ccc(C(F)(F)F)c(-c3n[nH]c4ncccc34)n2)C1 (stereo partly drawn) [Compound 265] | < 0.5 | > 1.25 | < 0.5 |
| CC1(C)CC1(O)C1CN(c2ccc(F)c(-c3n[nH]c4ncccc34)n2)CCN1 (stereo not drawn) [Compound 380] | < 0.05 | > 1.25 | > 1.25 |
| CC(C)C[C@@H]1CN(c2cccc(-c3n[nH]c4ncc(F)cc34)n2)CCN1 [Compound 46] | < 0.05 | < 2.8 | < 0.5 |
| CC(C)C(O)C1CN(c2ccc(F)c(-c3n[nH]c4ncccc34)n2)CCN1 (stereo not drawn) [Compound 252] | < 0.05 | < 2.8 | < 0.5 |
